{"source": "PubChem BioAssay AID330", "about": "(DTP/NCI, 2004)", "system": "P388 leukemia ip, CD2F1 mice, survival T/C", "assay": "NCI In Vivo Anticancer Drug Screen. Data for tumor model P388 Leukemia (intraperitoneal) in CD2F1 (CDF1) mice", "settings": "endpoint: median survival time, higher = longer survival", "how_it_was_run": "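Mice carrying the transplanted tumor received test compound or vehicle. Survival was recorded in each group, and the value is the treated-group measurement divided by that of the vehicle-treated control group.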", "key": {"[1]": {"settings": "dose: 50.0 mg/kg/injection, schedule: Q01DX005 (ip), vehicle: saline with Tween-80"}, "[2]": {"settings": "dose: 100.0 mg/kg/injection, schedule: Q01DX005 (ip), vehicle: saline with Tween-80"}, "[3]": {"settings": "dose: 200.0 mg/kg/injection, schedule: Q01DX005 (ip), vehicle: saline with Tween-80"}, "[4]": {"settings": "dose: 60.0 mg/kg/injection, schedule: Q01DX005 (ip), vehicle: saline with Tween-80"}, "[5]": {"settings": "dose: 120.0 mg/kg/injection, schedule: Q01DX005 (ip), vehicle: saline with Tween-80"}, "[6]": {"settings": "dose: 240.0 mg/kg/injection, schedule: Q01DX005 (ip), vehicle: saline with Tween-80"}, "[7]": {"settings": "dose: 50.0 mg/kg/injection, schedule: Q01DX005 (ip), vehicle: Klucel (hydroxypropylcellulose) (HPC)"}, "[8]": {"settings": "dose: 100.0 mg/kg/injection, schedule: Q01DX005 (ip), vehicle: Klucel (hydroxypropylcellulose) (HPC)"}, "[9]": {"settings": "dose: 200.0 mg/kg/injection, schedule: Q01DX005 (ip), vehicle: Klucel (hydroxypropylcellulose) (HPC)"}, "[10]": {"settings": "dose: 100.0 mg/kg/injection, schedule: Q04DX003 (ip), vehicle: Klucel (hydroxypropylcellulose) (HPC)"}, "[11]": {"settings": "dose: 200.0 mg/kg/injection, schedule: Q04DX003 (ip), vehicle: Klucel (hydroxypropylcellulose) (HPC)"}, "[12]": {"settings": "dose: 25.0 mg/kg/injection, schedule: Q01DX005 (ip), vehicle: Klucel (hydroxypropylcellulose) (HPC)"}, "[13]": {"settings": "dose: 12.5 mg/kg/injection, schedule: Q01DX005 (ip), vehicle: Klucel (hydroxypropylcellulose) (HPC)"}}, "note": "Values joined by “and” are separate entries in the source; they are usually repeats but may differ in a detail not shown here. Identical values can stand only once. Toxic doses and inconclusive results are not listed."}
{"smiles": "O=[N+]([O-])CC(c1ccccc1)C(c1ccccc1)[N+](=O)[O-]", "note": "(centres undefined)", "values": [{"measurement": "T/C", "setting": "[1]", "result": "90 % of control"}, {"measurement": "T/C", "setting": "[2]", "result": "93 % of control"}, {"measurement": "T/C", "setting": "[3]", "result": "112 % of control"}]}
{"smiles": "CCCC(=O)N(C)O", "values": [{"measurement": "T/C", "setting": "[2]", "result": "108 % of control"}, {"measurement": "T/C", "setting": "[3]", "result": "103 % of control"}]}
{"smiles": "Cc1ccccc1N1CCOS(=O)OC(C)C1", "note": "(centres undefined)", "values": [{"measurement": "T/C", "setting": "[1]", "result": "100 % of control"}, {"measurement": "T/C", "setting": "[2]", "result": "104 % of control"}, {"measurement": "T/C", "setting": "[3]", "result": "100 % of control"}]}
{"smiles": "N#CC(C(=O)C(=O)Nc1ccc(Cl)c(Cl)c1)c1ccccc1", "note": "(centres undefined)", "values": [{"measurement": "T/C", "setting": "[4]", "result": "100 % of control"}, {"measurement": "T/C", "setting": "[5]", "result": "99 % of control"}]}
{"smiles": "Cc1ccc2nc(CC(=O)c3cccnc3)c(CC(=O)c3cccnc3)nc2c1", "values": [{"measurement": "T/C", "setting": "[4]", "result": "93 % of control"}, {"measurement": "T/C", "setting": "[5]", "result": "100 % of control"}, {"measurement": "T/C", "setting": "[6]", "result": "100 % of control"}]}
{"smiles": "CNC(=O)c1ccccc1NC(=O)c1ccccc1N=[N+]=[N-]", "values": [{"measurement": "T/C", "setting": "[7]", "result": "100 % of control"}, {"measurement": "T/C", "setting": "[8]", "result": "100 % of control"}, {"measurement": "T/C", "setting": "[9]", "result": "98 % of control"}]}
{"smiles": "C=CCSC(=S)Nc1nc2ccc(C)cc2s1", "values": [{"measurement": "T/C", "setting": "[10]", "result": "96 % of control"}, {"measurement": "T/C", "setting": "[11]", "result": "98 % of control"}, {"measurement": "T/C", "setting": "dose: 400.0 mg/kg/injection, schedule: Q04DX003 (ip), vehicle: Klucel (hydroxypropylcellulose) (HPC)", "result": "97 % of control"}]}
{"smiles": "CCC(C(=O)N(C)C)n1nc(Br)c(Br)c1C", "note": "(centres undefined)", "values": [{"measurement": "T/C", "setting": "[10]", "result": "97 % of control"}, {"measurement": "T/C", "setting": "[11]", "result": "95 % of control"}]}
{"smiles": "Cc1ccc(S(=O)(=O)NC(=O)n2nc(C)cc2C)cc1", "values": [{"measurement": "T/C", "setting": "[7]", "result": "96 % of control"}, {"measurement": "T/C", "setting": "[8]", "result": "96 % of control"}, {"measurement": "T/C", "setting": "[9]", "result": "103 % of control"}]}
{"smiles": "COC(=O)N1C2CCCCC2=NN(c2ccccc2)N1C(=O)OC", "note": "(centres undefined)", "values": [{"measurement": "T/C", "setting": "[12]", "result": "100 % of control"}, {"measurement": "T/C", "setting": "[7]", "result": "98 % of control"}, {"measurement": "T/C", "setting": "[8]", "result": "93 % of control"}, {"measurement": "T/C", "setting": "[9]", "result": "91 % of control"}]}
{"smiles": "Cc1cc2nc(CC(=O)c3ccncc3)c(CC(=O)c3ccncc3)nc2cc1C", "values": [{"measurement": "T/C", "setting": "[4]", "result": "106 % of control"}, {"measurement": "T/C", "setting": "[5]", "result": "91 % of control"}, {"measurement": "T/C", "setting": "[6]", "result": "91 % of control"}]}
{"smiles": "COc1ccc(/C(=C/c2ccc([N+](=O)[O-])cc2)C(=O)O)cc1", "values": [{"measurement": "T/C", "setting": "[7]", "result": "105 % of control"}, {"measurement": "T/C", "setting": "[8]", "result": "105 % of control"}, {"measurement": "T/C", "setting": "[9]", "result": "105 % of control"}]}
{"smiles": "CC1CCC2(CC1=O)C(C)CC(=O)C2C(C)C", "note": "(centres undefined)", "values": [{"measurement": "T/C", "setting": "dose: 50.0 mg/kg/injection, schedule: Q01DX009 (ip), vehicle: Klucel (hydroxypropylcellulose) (HPC)", "result": "112 % of control"}, {"measurement": "T/C", "setting": "dose: 100.0 mg/kg/injection, schedule: Q01DX009 (ip), vehicle: Klucel (hydroxypropylcellulose) (HPC)", "result": "114 % of control"}, {"measurement": "T/C", "setting": "dose: 100.0 mg/kg/injection, schedule: Q04DX003 (ip), vehicle: other", "result": "95 % of control"}, {"measurement": "T/C", "setting": "dose: 200.0 mg/kg/injection, schedule: Q01DX009 (ip), vehicle: Klucel (hydroxypropylcellulose) (HPC)", "result": "98 % of control"}, {"measurement": "T/C", "setting": "dose: 200.0 mg/kg/injection, schedule: Q04DX003 (ip), vehicle: other", "result": "90 % of control"}, {"measurement": "T/C", "setting": "dose: 400.0 mg/kg/injection, schedule: Q04DX003 (ip), vehicle: other", "result": "100 % of control"}]}
{"smiles": "COc1cc2nc3cc([N+](=O)[O-])ccc3c(Cl)c2cc1OC", "values": [{"measurement": "T/C", "setting": "[1]", "result": "99 % of control"}, {"measurement": "T/C", "setting": "[2]", "result": "101 % of control"}, {"measurement": "T/C", "setting": "[3]", "result": "89 % of control"}]}
{"smiles": "CCOC(=O)c1sc2nc(CN3CCOCC3)[nH]c(=O)c2c1C", "values": [{"measurement": "T/C", "setting": "[1]", "result": "94 % of control"}, {"measurement": "T/C", "setting": "[2]", "result": "98 % of control"}, {"measurement": "T/C", "setting": "[3]", "result": "98 % of control"}]}
{"smiles": "Cc1cc(N/N=C/c2ccccn2)nc2ccccc12", "values": [{"measurement": "T/C", "setting": "[13]", "result": "101 % of control"}, {"measurement": "T/C", "setting": "[12]", "result": "112 % of control"}]}
{"smiles": "CCOC(=O)c1cc2cc3c4c(c2oc1=O)CCCN4CCC3", "values": [{"measurement": "T/C", "setting": "[13]", "result": "106 % of control"}, {"measurement": "T/C", "setting": "[12]", "result": "110 % of control"}, {"measurement": "T/C", "setting": "[7]", "result": "107 % of control and 111 % of control"}]}
{"smiles": "COc1cccc2c1C(=O)c1c(O)c3c(c(O)c1C2=O)C[C@@](O)(C(=O)CO)C[C@@H]3OC1CC(NC(=O)C(N)CC(C)C)C(O)C(C)O1", "note": "(some centres undefined)", "values": [{"measurement": "T/C", "setting": "dose: 3.12 mg/kg/injection, schedule: Q04DX003 (ip), vehicle: saline", "result": "105 % of control"}, {"measurement": "T/C", "setting": "dose: 6.25 mg/kg/injection, schedule: Q04DX003 (ip), vehicle: saline", "result": "118 % of control"}, {"measurement": "T/C", "setting": "dose: 25.0 mg/kg/injection, schedule: Q04DX003 (ip), vehicle: saline", "result": "150 % of control"}]}
